Assay results published in patent publication US10321683B2, “Insecticidal, miticidal, nematicidal, molluscicidal, microbicidal, or bactericidal composition and method for controlling pest” (NISSAN CHEMICAL INDUSTRIES, LTD., priority 2014, dated 2019).

Experiments:
[1] = tested on: third instar larvae of common cutworms; assay: Efficacy test for common cutworm (cabbage leaf dip); format: in vivo, Common cutworm (Spodoptera litura); settings: six days after the treatment
Description: Each of Compound (1) or Compound (2) and the compounds listed in Table 1 was formulated into a 10% emulsifiable concentrate (some compound was formulated into a 25% wettable powder). The formulations were diluted with water containing a spreading agent to prepare chemical solutions of given concentrations. Cabbage leaves were dipped in the chemical solutions for 10 seconds. The dipped cabbage leaves were transferred on filter papers placed in 7 cm petri dishes with one leaf per one petri dish, and the leaves were air dried. After the air drying was completed, the seven third instar larvae of common cutworms were placed in each petri dish and then the petri dishes were placed in an incubator at 25° C. Six days after the treatment, the numbers of dead larvae were checked, and the percentages of dead insects were calculated according to the calculating equation below. Note that the tests were conducted in duplicate. The percentage of dead insects (%)=the number of dead insects/the number of tested insects×100
(§1) To each concentration of chemical solutions, the synergistic effect was calculated from the percentage of dead insects by using Colby's method (Colby S. R. 1976, Weeds 15, 20-22). The calculation method was as follows. E=X+Y−XY/100
(§2) X: an observed value at an x concentration of Chemical A (the percentage of dead insects)
(§3) Y: an observed value at a y concentration of Chemical B (the percentage of dead insects)
(§4) E: the percentage of dead insects expected at the time of a mixed treatment with Chemical A and Chemical B.
(§5) If the observed value was larger than the expected value, there was a synergistic effect; if the expected value was larger than the observed value, there was an antagonist effect; and if the observed value and the expected value were same, there was an additive effect.

[2] = tested on: Western flower thrips larva; assay: Efficacy test for Western flower thrips larva (leaf disk spray); format: in vivo, Western flower thrips (Frankliniella occidentalis); settings: 1 day after spraying
Description: A styrol cup (having the diameter of the lid of 7.5 cm, and the height of 4 cm) was filled with tap water, and a lid having a hole in its center was placed on the styrol cup, and a leaf disk (having the diameter of 1.7 cm) made of a common bean leaf was placed on the lid. Suitable amounts of eggs of Western flower thrips were placed on the leaf disk, and were controlled in a thermostatic chamber for 24 hours to be hatched. Each of Compound (1) or Compound (2) and the compounds listed in Table 1 was formulated into a 10% emulsifiable concentrate. The formulations were diluted with water to prepare chemical solutions of given concentrations. Each of the test containers was treated with a spray solution as was uniformly sprayed by using a spraying apparatus (2.5 ml/cup). Examinations were conducted 1 day after spraying, and the percentages of dead insects were calculated according to the calculating equation below. Note that the tests were conducted in duplicate. The percentage of dead insects (%)=the number of dead insects/the number of tested insects×100
as §1, §2, §3, §4, §5

varroa mites = assay: Efficacy test for varroa mite (coated screw bottle); format: in vivo; settings: 100 μg/tube; 24 hours after placing
Description: The Compound (1) or Compound (2) was adjusted to a given concentration with acetone. After the adjustment, 300 μl of each of the prepared solutions was poured into a 20 ml screw bottle. The solvent was volatilized as the inner surface of the bottle was uniformly coated with the solution, and then the bottle was stored in a cool and dark place overnight. To obtain varroa mites, a blood comb was taken out from a beehive of honey bees on the day before placing of mites, and pupae having varroa mites were taken and placed in a petri dish. The petri dish was stored in an incubator at 34° C. overnight under the total darkness condition, and then only surviving varroa mites were collected. The collected varroa mites were placed in each of the screw bottles that were treated with the above-described chemicals, and the screw bottles were closed with caps. After three hours, the pupae of honey bees were placed in the screw bottles; the screw bottles were closed with caps again, and were stored in an incubator at 34° C. under the total darkness condition. The number of dead insects 24 hours after placing was checked, and the percentages of dead insects were calculated according to the calculating equation below. Note that the tests were conducted in quadruplicate of three in one plot. The percentage of dead insects (%)=the number of dead insects/the number of tested insects×100

[3] = tested on: fourth instar larvae of cotton bollworms; assay: Efficacy test for cotton bollworm (cabbage leaf dip); format: in vivo, Cotton bollworm (Helicoverpa armigera); settings: six days after the treatment
Description: Each of Compound (1) or Compound (2) and the compounds listed in Table 1 was formulated into a 10% emulsifiable concentrate (some compound was formulated into a 25% wettable powder). The formulations were diluted with water containing a spreading agent to prepare chemical solutions of given concentrations. Cabbage leaves were dipped in the chemical solutions for 10 seconds. The dipped cabbage leaves were transferred on filter papers placed in 7 cm petri dishes with one leaf per one petri dish, and the leaves were air dried. After the air drying was completed, the seven fourth instar larvae of cotton bollworms were placed in each petri dish, and then, the petri dishes were placed in an incubator at 25° C. Six days after the treatment, the numbers of dead larvae were checked, and the percentages of dead insects were calculated according to the calculating equation below. Note that the tests were conducted in duplicate. The percentage of dead insects (%)=the number of dead insects/the number of tested insects×100
as §1, §2, §3, §4, §5

[4] = tested on: melon thrips female adult insects; assay: Efficacy test for melon thrips female adult insect (leaf disk spray); format: in vivo, Melon thrips (Thrips palmi); settings: 2 days after spraying
Description: (§6) Each of Compound (1) or Compound (2) and the compounds listed in Table 1 was formulated into a 10% emulsifiable concentrate. The formulations were diluted with water to prepare chemical solutions of given concentrations. A styrol cup (having the diameter of the lid of 7.5 cm, and the height of 4 cm) was filled with tap water, and a lid having a hole in its center was placed on the styrol cup, and a filter paper was placed on the lid to absorb tap water. An absorbent cotton (5 cm×5 cm) wetted with tap water was placed on the filter paper, and a leaf disk (having the diameter of 1.7 cm) made of a cucumber leaf was placed on the absorbent cotton. The ten melon thrips female adult insects were placed on the leaf disk. Each of the test containers was treated with a spray solution as was uniformly sprayed by using a spraying apparatus (2.5 ml/cup). Examinations were conducted 2 days after spraying, and the percentages of dead insects were calculated according to the calculating equation below. Note that the tests were conducted in duplicate. The percentage of dead insects (%)=the number of dead insects/the number of tested insects×100
To each concentration of chemical solutions, the synergistic effect was calculated from the percentage of dead insects by using Colby's method (Colby S. R. 1976, Weeds 15, 20-22). The calculation method was as follows. E=X+Y−XY/100 […]

[5] = tested on: sweetpotato whitefly adult insects; assay: Efficacy test for sweetpotato whitefly biotype B (leaf disk spray); format: in vivo, Sweetpotato whitefly (Bemisia tabaci) biotype B; settings: 5 days after spraying
Description: as §6, with “of 3” for “of 1.7”, “a common bean” for “a cucumber”, “cotton.” for “cotton. The ten melon thrips female adult insects were placed on the leaf disk.”, “ml/cup). The 20 sweetpotato whitefly adult insects were placed on the leaf disk, and a mesh lid was placed over the container to prevent escape of the insects.” for “ml/cup).”, “conducted 5” for “conducted 2”, “insects×100 To each concentration of chemical solutions, the synergistic effect was calculated from the percentage of dead insects by using Colby's method (Colby S. R. […], Weeds 15, 20-22). […]” for “insects×100”

N#Cc1ccc(CC(=NNC(=O)Nc2ccc(OC(F)(F)F)cc2)c2cccc(C(F)(F)F)c2)cc1 (mixture of isomers) [Compound dc, metaflumizone, reference compound]
Percentage of Dead Insect (%) Observed Value ([1]; Table 6, 1.7 ppm): 53.8%

Cc1c(COC(=O)[C@@H]2[C@H](/C=C(\Cl)C(F)(F)F)C2(C)C)cccc1-c1ccccc1 (racemic) [Compound q, bifenthrin]
Percentage of Dead Insect (%) Observed Value ([2]; 20 ppm): 8.5%

Cc1cc(C2=NOC(c3cc(Cl)cc(Cl)c3)(C(F)(F)F)C2)ccc1C(=O)NCC(=O)NCC(F)(F)F (stereo not drawn) [Compound (1), 4-[5-(3,5-dichlorophenyl)-4,5-dihydro-5-(trifluoromethyl)isoxazole-3-yl]-2-methyl-N-[2-oxo-2-[(2,2,2-trifluoroethyl)amino]ethyl]benzamide]
Percentage of Dead Insect (%) (varroa mites): 100% | Percentage of Dead Insect (%) Observed Value ([3]; 0.125 ppm): 28.6% | Percentage of Dead Insect (%) Observed Value ([1]; 0.017 ppm): 28.6%

CO/N=C\NC(=O)c1ccc(C2=NOC(c3cc(Cl)cc(Cl)c3)(C(F)(F)F)C2)cc1C (stereo not drawn) [Compound (2), (Z)-4-[5-(3,5-dichlorophenyl)-5-trifluoromethyl-4,5-dihydroisoxazole-3-yl]-N-(methoxyiminomethyl)-2-methylbenzamide]
Percentage of Dead Insect (%) (varroa mites): 100% | Percentage of Dead Insect (%) Observed Value ([2]; 1 ppm): 29.5% | Percentage of Dead Insect (%) Observed Value ([4]; 5 ppm): 42.1% | Percentage of Dead Insect (%) Observed Value ([3]; 0.125 ppm): 35.7% | Percentage of Dead Insect (%) Observed Value ([5]; 5 ppm): 36.6% | Percentage of Dead Insect (%) Observed Value ([1]; 0.017 ppm): 35.7% | Percentage of Dead Insect (%) Observed Value ([1]; Table 4, 0.025 ppm): 35.7% | Percentage of Dead Insect (%) Observed Value ([1]; Table 5, 0.025 ppm): 35.7% | Percentage of Dead Insect (%) Observed Value ([1]; Table 6, 0.025 ppm): 35.7% | Percentage of Dead Insect (%) Observed Value ([1]; Table 7, 0.005 ppm): 14.3% | Percentage of Dead Insect (%) Observed Value ([1]; Table 8, 0.005 ppm): 14.3%

CNC(=O)c1cc(Cl)cc(C)c1NC(=O)c1cc(Br)nn1-c1ncccc1Cl [Compound aa, chlorantraniliprole, reference compound]
Percentage of Dead Insect (%) Observed Value ([1]; 0.083 ppm): 21.4%

CNC(=O)c1cc(C#N)cc(C)c1NC(=O)c1cc(Br)nn1-c1ncccc1Cl [Compound al, cyantraniliprole, reference compound]
Percentage of Dead Insect (%) Observed Value ([3]; 0.25 ppm): 42.9%

CC(NC(=O)c1cc(Cl)cc(Br)c1NC(=O)c1cc(Br)nn1-c1ncccc1Cl)C1CC1 (stereo not drawn) [Compound am, cyclaniliprole, reference compound]
Percentage of Dead Insect (%) Observed Value ([1]; Table 7, 0.17 ppm): 7.7%

CC1(C)[C@H](C(=O)O[C@H](C#N)c2cccc(Oc3ccccc3)c2)[C@@H]1/C=C(\Cl)C(F)(F)F [Compound ar, gamma-cyhalothrin, reference compound]
Percentage of Dead Insect (%) Observed Value ([1]; 0.5 ppm): 35.7%

CCc1nc2cc(C)c(Oc3ccc(OC(F)(F)F)cc3)cc2c(OC(=O)OC)c1C [Compound bx, flometoquin, reference compound]
Percentage of Dead Insect (%) Observed Value ([4]; 2.5 ppm): 52.6%

Cc1cc(C(F)(C(F)(F)F)C(F)(F)F)ccc1NC(=O)c1cccc(I)c1C(=O)NC(C)(C)CS(C)(=O)=O [Compound ca, flubendiamide, reference compound]
Percentage of Dead Insect (%) Observed Value ([3]; 0.025 ppm): 35.7%

O=C(NC(=O)c1c(F)cccc1F)Nc1ccc(Oc2ccc(C(F)(F)F)cc2Cl)cc1F [Compound ce, flufenoxuron]
Percentage of Dead Insect (%) Observed Value ([2]; 20 ppm): 27.2%

O=C1C=C(N(Cc2ccc(Cl)nc2)CC(F)F)CO1 [Compound ci, flupyradifurone, reference compound]
Percentage of Dead Insect (%) Observed Value ([5]; 25 ppm): 40.5%

spinetoram [Compound el, reference compound]
Percentage of Dead Insect (%) Observed Value ([1]; Table 5, 4.4 ppm): 78.6%

spinosad [Compound em, reference compound]
Percentage of Dead Insect (%) Observed Value ([1]; Table 4, 32 ppm): 60.0%

tetraniliprole [Compound ey, reference compound]
Percentage of Dead Insect (%) Observed Value ([1]; Table 8, 1.7 ppm): 64.3%
